Reference: patent US4327097A, “Novel penicillins” (Toyama Chemical Co., Ltd., priority 1974, dated 1982)
In brackets after ≈: the same amount, converted by molar mass.

What was measured:
[1] = system: Escherichia coli NIHJ; experiment: MIC, plate method, standard strains; format: cell-based; settings: Table 4, standard strain; unit assumed
Protocol: (§1) The minimum inhibitory concentration (MIC) was determined by the plate method disclosed in "Chemotherapy" (Japan), Vol. 16, (1968), pages 98-99. The culture medium used was a Heart infusion agar (pH 7.4). The number of the cells per plate used in the inoculum was 10^4 (10^6 cells/ml).

[2] = system: Klebsiella pneumoniae; experiment: MIC, plate method, standard strains; format: cell-based; settings: Table 4, standard strain; unit assumed
Protocol: as §1

[3] = system: Proteus vulgaris 3027; experiment: MIC, plate method, standard strains; format: cell-based; settings: Table 4, standard strain; unit assumed
Protocol: as §1

[4] = system: Pseudomonas aeruginosa I.F.O.; experiment: MIC, plate method, standard strains; format: cell-based; settings: Table 4, standard strain; unit assumed
Protocol: as §1

[5] = system: Staphylococcus aureus 209p; experiment: MIC, plate method, standard strains; format: cell-based; settings: Table 4, standard strain; unit assumed
Protocol: as §1

[6] = molecular target: β-lactamase, Escherichia freundii GN 346 (Citrobacter freundii, UniProt Q46041); experiment: Resistant activity against β-lactamase, iodometric assay; format: biochemical; settings: control Cephalorizine = 100
Protocol: (§2) (4) Resistant activity of each cephalosporin compound against β-lactamase, Proteus vulgaris GN 76 and Escherichia freundii GN 346:
(§3) The resistant activity of each cephalosporin compound against β-lactamase was measured in the manner described below.
(§4) β-lactamase was prepared from Proteus vulgaris GN 76 and Escherichia freundii GN 346. 10 ml of an overnight culture in Heart Infusion broth was diluted with 100 ml of a medium containing 2 g of yeast extract, 10 g of polypeptone, 2 g of glucose, 7 g of disodium hydrogen phosphate, 2 g of potassium dihydrogen phosphate, 1.2 g of ammonium sulfate and 0.4 g of magnesium sulfate, per liter, and incubated with shaking at 37° C. After incubation of 2 hrs, Penicillin G (50 μg/ml) was added as the inducer, and further incubated for 2 hrs. The resulting cells were collected by centrifugation (5,000 r.p.m.×10 min.) and washed two times with 0.1 M phosphate buffer (pH 7.0). Subsequently, the cells were subjected to sonication (20 KHz, 5 min.) and then centrifuged at 15,000 r.p.m. for 60 min. By using the supernatant of enzyme fluid, the stability of each compound against β-lactamase was determined by the iodometric assay method. Each numeral shown in Table 7-2 is a relative activity value calculated by assuming as 100 the activity of the control Cephalorizine.

[7] = molecular target: T1, β-lactamase, Proteus vulgaris GN 76 (Proteus vulgaris, UniProt P52664); experiment: as above; format: biochemical; settings: control Cephalorizine = 100
T1 construct: By using the supernatant of enzyme fluid; endogenous in cells; host or cells: Proteus vulgaris GN 76 (penicillin G-induced cells, sonicated, 15,000 r.p.m. supernatant)
Protocol: as §2, §3, §4

[8] = system: Pseudomonas aeruginosa; experiment: MIC against clinical isolates; format: cell-based; settings: unit assumed
[9] = system: Staphylococcus aureus; experiment: MIC against clinical isolates; format: cell-based; settings: Table 6-1, clinical isolate; unit assumed
[10] = system: Escherichia coli; experiment: MIC against clinical isolates; format: cell-based; settings: Table 6-2, clinical isolate; unit assumed
[11] = system: Klebsiella pneumoniae; experiment: MIC against clinical isolates; format: cell-based; settings: Table 6-4, clinical isolate; unit assumed

T1 sequence (P52664 30-300): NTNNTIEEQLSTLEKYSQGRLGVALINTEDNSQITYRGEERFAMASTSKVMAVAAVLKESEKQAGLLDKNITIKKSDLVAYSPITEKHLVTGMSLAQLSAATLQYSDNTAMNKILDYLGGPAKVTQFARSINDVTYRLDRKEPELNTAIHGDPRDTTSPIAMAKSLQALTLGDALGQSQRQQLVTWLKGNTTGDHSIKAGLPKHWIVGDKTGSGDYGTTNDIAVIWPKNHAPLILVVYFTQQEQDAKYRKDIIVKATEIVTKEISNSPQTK
Sequence of β-lactamase, Escherichia freundii GN 346 (Q46041 entry or part of it): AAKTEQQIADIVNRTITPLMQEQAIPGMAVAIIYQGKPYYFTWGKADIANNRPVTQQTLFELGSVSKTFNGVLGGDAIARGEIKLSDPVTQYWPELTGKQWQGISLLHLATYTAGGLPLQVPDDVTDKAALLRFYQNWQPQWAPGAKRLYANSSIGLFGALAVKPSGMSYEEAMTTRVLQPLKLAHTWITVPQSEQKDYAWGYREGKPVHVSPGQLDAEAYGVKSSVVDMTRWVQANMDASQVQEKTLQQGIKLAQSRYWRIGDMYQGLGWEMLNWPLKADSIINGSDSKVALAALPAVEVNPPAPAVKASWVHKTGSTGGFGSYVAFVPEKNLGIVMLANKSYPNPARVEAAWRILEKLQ

In the case of CCN1CCN(C(=O)NC(C(=O)NC2C(=O)N3C(C(=O)O)=C(COC(N)=O)CSC23)c2ccc(O)cc2)C(=O)C1=O (single isomer, unassigned) [Compound No. 84], the MIC Escherichia coli NIHJ [1] is reported as under 1.57 µg/mL, the MIC Klebsiella pneumoniae [2] is reported as under 1.57 µg/mL and the MIC Proteus vulgaris 3027 [3] is reported as under 1.57 µg/mL. For the same molecule, the MIC Pseudomonas aeruginosa I.F.O. [4] was 25 µg/mL (≈ 42.3 µM), the MIC Staphylococcus aureus 209p [5] was under 1.57 µg/mL and the “Relative activity (%) against β-lactamase, E. freundii GN 346” value (“Relative activity (%) … E. freundii GN 346” below) [6] was 1%. The “Relative activity (%) against β-lactamase, Pr. vulgaris GN 76” value (“Relative activity (%) … Pr. vulgaris GN 76” below) [7] was 10%.
O=C(Cc1cccs1)N[C@@H]1C(=O)N2C(C(=O)[O-])=C(C[n+]3ccccc3)CS[C@H]12 [Cephalorizine, reference compound] was tested, and the MIC Pseudomonas aeruginosa GN4 ([8]; Table 6-3, clinical isolate) was over 200 µg/mL, the MIC Pseudomonas aeruginosa GN 82 ([8]; Table 6-3, clinical isolate) was over 200 µg/mL and the MIC Pseudomonas aeruginosa GN 163 ([8]; Table 6-3, clinical isolate) was over 200 µg/mL. It also gave an MIC Pseudomonas aeruginosa GN 221 ([8]; Table 6-3, clinical isolate) of over 200 µg/mL, an MIC Pseudomonas aeruginosa GN 376 ([8]; Table 6-3, clinical isolate) of over 200 µg/mL and an MIC Pseudomonas aeruginosa GN 1035 ([8]; Table 6-3, clinical isolate) of over 200 µg/mL. The MIC Pseudomonas aeruginosa GN 1091 ([8]; Table 6-3, clinical isolate) was over 200 µg/mL, the MIC Pseudomonas aeruginosa GN 2565 ([8]; Table 6-3, clinical isolate) was over 200 µg/mL and the MIC Pseudomonas aeruginosa GN 2987 ([8]; Table 6-3, clinical isolate) was over 200 µg/mL. For the same molecule, the MIC Pseudomonas aeruginosa S-2 ([8]; Table 6-4, clinical isolate) was over 200 µg/mL, the MIC Pseudomonas aeruginosa S-3 ([8]; Table 6-4, clinical isolate) was over 200 µg/mL and the MIC Pseudomonas aeruginosa S-4 ([8]; Table 6-4, clinical isolate) was over 200 µg/mL. The “Relative activity (%) … E. freundii GN 346” value [6] was 100% and the “Relative activity (%) … Pr. vulgaris GN 76” value [7] was 100%.
For CCN1CCN(C(=O)NC(C(=O)NC2C(=O)N3C(C(=O)O)=C(CSc4nnnn4C)CSC23)c2ccccc2)C(=O)C1=O (centres unmarked) [Compound No. 69], the MIC Pseudomonas aeruginosa GN4 ([8]; Table 6-3, clinical isolate) was 25 µg/mL (≈ 39.7 µM), the “Relative activity (%) … E. freundii GN 346” value [6] was 0.1% and the “Relative activity (%) … Pr. vulgaris GN 76” value [7] was 4%.
CC(=O)OCC1=C(C(=O)O)N2C(=O)[C@@H](NC(=O)[C@H](N)c3ccccc3)[C@H]2SC1 [Sodium Cephaloglycin, reference compound] was tested, and the MIC Pseudomonas aeruginosa GN4 ([8]; Table 6-3, clinical isolate) was over 200 µg/mL, the MIC Pseudomonas aeruginosa S-4 ([8]; Table 6-4, clinical isolate) was over 200 µg/mL and the “Relative activity (%) … E. freundii GN 346” value [6] was 0.3%. The “Relative activity (%) … Pr. vulgaris GN 76” value [7] was 1300%.
In the case of CC(=O)OCC1=C(C(=O)O)N2C(=O)[C@@H](NC(=O)Cc3cccs3)[C@H]2SC1 [Sodium Cephalothin, reference compound], the MIC Staphylococcus aureus F-1 [9] is reported as under 0.4 µg/mL, the MIC Staphylococcus aureus F-2 [9] is reported as under 0.4 µg/mL and the MIC Staphylococcus aureus F-3 [9] is reported as under 0.4 µg/mL. It also gave an MIC Staphylococcus aureus F-4 [9] of under 0.4 µg/mL, an MIC Staphylococcus aureus F-5 [9] of 1.56 µg/mL and an MIC Staphylococcus aureus MS 8588 [9] of under 0.4 µg/mL. It also gave an MIC Staphylococcus aureus MS 8596 [9] of under 0.4 µg/mL, an MIC Staphylococcus aureus MS 8619 [9] of under 0.4 µg/mL and an MIC Staphylococcus aureus MS 8684 [9] of under 0.4 µg/mL. The MIC Staphylococcus aureus MS 8713 [9] was under 0.4 µg/mL, the MIC Escherichia coli GN 3435 [10] was 6.25 µg/mL and the MIC Escherichia coli GN 3452 [10] was 12.5 µg/mL. The MIC Escherichia coli GN 3481 [10] was 12.5 µg/mL, the MIC Escherichia coli K-1 [10] was 6.25 µg/mL and the MIC Escherichia coli K-2 [10] was 6.25 µg/mL. It also gave an MIC Pseudomonas aeruginosa GN ([8]; Table 6-3, clinical isolate, strain number not given) of over 200 µg/mL, an MIC Pseudomonas aeruginosa GN4 ([8]; Table 6-3, clinical isolate) of over 200 µg/mL and an MIC Pseudomonas aeruginosa GN 82 ([8]; Table 6-3, clinical isolate) of over 200 µg/mL. The MIC Pseudomonas aeruginosa GN 163 ([8]; Table 6-3, clinical isolate) was over 200 µg/mL, the MIC Pseudomonas aeruginosa GN 221 ([8]; Table 6-3, clinical isolate) was over 200 µg/mL and the MIC Pseudomonas aeruginosa GN 376 ([8]; Table 6-3, clinical isolate) was over 200 µg/mL. For the same molecule, the MIC Pseudomonas aeruginosa GN 1035 ([8]; Table 6-3, clinical isolate) was over 200 µg/mL, the MIC Pseudomonas aeruginosa GN 1091 ([8]; Table 6-3, clinical isolate) was over 200 µg/mL and the MIC Pseudomonas aeruginosa GN 2565 ([8]; Table 6-3, clinical isolate) was over 200 µg/mL. For the same molecule, the MIC Pseudomonas aeruginosa GN 2987 ([8]; Table 6-3, clinical isolate) was over 200 µg/mL, the MIC Pseudomonas aeruginosa S-1 ([8]; Table 6-4, clinical isolate) was over 200 µg/mL and the MIC Pseudomonas aeruginosa S-2 ([8]; Table 6-4, clinical isolate) was over 200 µg/mL. For the same molecule, the MIC Pseudomonas aeruginosa S-3 ([8]; Table 6-4, clinical isolate) was over 200 µg/mL, the MIC Pseudomonas aeruginosa S-4 ([8]; Table 6-4, clinical isolate) was over 200 µg/mL and the MIC Klebsiella pneumoniae GN 917 [11] was 3.13 µg/mL. The MIC Klebsiella pneumoniae GN 4081 [11] was 12.5 µg/mL, the MIC Klebsiella pneumoniae GN 4117 [11] was 6.25 µg/mL and the “Relative activity (%) … E. freundii GN 346” value [6] was 17%. For the same molecule, the “Relative activity (%) … Pr. vulgaris GN 76” value [7] was 105%.
